Data from patent US10849898B2, “Treatment of relapsed and/or refractory solid tumors and non-Hodgkin's lymphomas” (CELGENE QUANTICEL RESEARCH, INC., priority 2016, dated 2020).
Like-named read-outs stand apart in the source and are kept apart here.

Experiments:
NCI-H1417 SCLC xenograft [1] = assay: Efficacy in NCI-H1417 SCLC xenograft model (athymic nude mice); assay type: in vivo
LU2514 SCLC PDX = assay: Efficacy in LU2514 HuPrime SCLC patient derived xenograft; assay type: in vivo, mice; settings: both LU2514 studies
Experimental: Tumor growth inhibition analysis was performed on Day 28 post treatment, the last day of dosing.

LXFS 573 SCLC PDX [2] = assay: Efficacy in LXFS 573 SCLC PDX model; assay type: in vivo, mice
LU2527 lung NEC PDX = assay type: in vivo
GA0087 gastric NEC PDX = assay type: in vivo
MKL-1 hMCC xenograft = assay type: in vivo; settings: 5 mg/kg PO 5 on/2 off
MS-1 hMCC xenograft = assay type: in vivo; settings: 5 mg/kg PO 5 on/2 off
MKL-1 cells = assay: Modulation of gene expression by RNA-seq; assay type: cell-based, human
Experimental: Libraries were sequenced on an Illumina NextSeq® 500 System (Illumina, San Diego, Calif.) using 75 base paired-end RNA sequencing. Sequenced reads were mapped to the hg19 human genome build and differential expression was determined by analysis of variance across all replicates relative to the vehicle control.
Sequenced reads were mapped to the hg19 human genome build using the Spliced Transcripts Alignment to a Reference (STAR) software tool (OAlexander Dobin, 2009-2016) and transcript counts were normalized using the Empirical Analysis of Digital Gene Expression Data in R (edgeR) and Differential gene expression analysis based on the negative binomial distribution (DESeq2) software tools (OBioconductor, 2003-2017). Differential expression was determined by analysis of variance across all replicates relative to the vehicle control.

[3] = Hemodynamic and ECG parameters in anesthetized guinea pigs; assay type: in vivo, Dunkin Hartley guinea pigs
Text: Animals were monitored throughout the experiment.

[4] = Pharmacokinetics after IV and oral administration; assay type: in vivo, CD-1 mice; settings: Mouse, female, single IV 5 mg base/kg
Text: (§1) Human PK parameters and exposures were predicted using allometric scaling. Mice and dogs were the species used for nonclinical toxicology assessment. […] Excretion of non-radiolabeled Compound A was studied in rats.

[5] = Pharmacokinetics after IV and oral administration; assay type: in vivo, Sprague Dawley rats; settings: rats
Text: as §1

[6] = Metabolism in cryopreserved primary hepatocytes; assay type: in vitro ADME; settings: mouse, rat, dog, monkey, human
[7] = Excretion in bile duct cannulated rats; assay type: in vivo; settings: IV
[8] = 4-week oral gavage pivotal toxicity study with 4-week recovery in dogs (with ECG and toxicokinetics); assay type: in vivo, Beagle dogs
Experimental: The QTc interval was calculated using the Fridericia method.

[9] = system: Salmonella typhimurium TA98 and TA 100 strains; assay: Bacterial reverse mutation assay; assay type: cell-based; settings: up to 500 μg/mL; with and without S9
[10] = Exploratory toxicity study in mice; assay type: in vivo, CD-1 mice
Text: Additional animals were included for TK evaluation.

LXFS 573 SCLC PDX [11] = settings: for SS, number of study survivors: Day 133, N=8
hERG potassium channel = hERG potassium channel (Homo sapiens (Human), UniProt Q12809); settings: hERG current
Sequence of hERG potassium channel (Q12809 whole entry): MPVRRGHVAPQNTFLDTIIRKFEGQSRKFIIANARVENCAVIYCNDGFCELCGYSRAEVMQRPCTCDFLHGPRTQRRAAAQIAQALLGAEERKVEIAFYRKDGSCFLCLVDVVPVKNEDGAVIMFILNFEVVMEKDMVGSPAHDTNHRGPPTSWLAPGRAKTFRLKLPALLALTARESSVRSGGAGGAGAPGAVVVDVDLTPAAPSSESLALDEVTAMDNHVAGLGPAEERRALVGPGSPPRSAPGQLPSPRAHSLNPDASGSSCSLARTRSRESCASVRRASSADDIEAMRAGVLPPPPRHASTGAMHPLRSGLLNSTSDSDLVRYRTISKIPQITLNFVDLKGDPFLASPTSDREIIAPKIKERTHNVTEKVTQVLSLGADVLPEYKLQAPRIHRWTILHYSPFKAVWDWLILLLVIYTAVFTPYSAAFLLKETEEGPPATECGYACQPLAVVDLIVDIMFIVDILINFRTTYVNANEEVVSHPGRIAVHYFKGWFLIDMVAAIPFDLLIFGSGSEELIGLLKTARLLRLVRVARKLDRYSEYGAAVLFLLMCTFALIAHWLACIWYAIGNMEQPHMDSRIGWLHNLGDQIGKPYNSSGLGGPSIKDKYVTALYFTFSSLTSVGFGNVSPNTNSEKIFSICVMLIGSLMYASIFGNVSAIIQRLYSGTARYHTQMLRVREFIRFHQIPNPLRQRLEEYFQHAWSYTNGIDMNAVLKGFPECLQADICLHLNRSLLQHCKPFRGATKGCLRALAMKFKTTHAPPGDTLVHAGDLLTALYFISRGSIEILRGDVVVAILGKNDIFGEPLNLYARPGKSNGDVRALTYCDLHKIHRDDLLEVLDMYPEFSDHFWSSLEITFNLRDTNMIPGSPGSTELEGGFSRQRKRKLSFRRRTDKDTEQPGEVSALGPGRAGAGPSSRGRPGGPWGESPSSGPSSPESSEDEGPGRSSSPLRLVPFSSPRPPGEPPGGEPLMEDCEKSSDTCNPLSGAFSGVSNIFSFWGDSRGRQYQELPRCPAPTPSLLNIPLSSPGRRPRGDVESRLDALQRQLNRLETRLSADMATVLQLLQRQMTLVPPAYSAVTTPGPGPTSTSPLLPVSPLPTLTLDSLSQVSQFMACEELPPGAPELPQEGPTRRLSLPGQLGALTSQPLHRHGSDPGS

[12] = Exploratory toxicity study in dogs
NCI-H1417 SCLC xenograft [13] = settings: 24 mg/kg Etoposide SC QD × 3
[14] = Etoposide at 24 mg/kg/day SC days 1-3 + Vehicle

COc1ccc(-c2c(-c3ccc(C#N)c(F)c3)nc(N3CCC(N)CC3)n(C)c2=O)cc1F [Compound A, 4-[2-(4-amino-piperidin-1-yl)-5-(3-fluoro-4-methoxy-phenyl)-1-methyl-6-oxo-1,6-dihydro-pyrimidin-4-yl]-2-fluoro-benzonitrile]
mean body weight gain by end of study (NCI-H1417 SCLC xenograft [1]; 2.5 mg base/kg PO QD×65): 1%
mean body weight gain by end of study (NCI-H1417 SCLC xenograft [1]; 5 mg base/kg PO QD×65): 7.5%
tolerability (NCI-H1417 SCLC xenograft [1]; 2.5 or 5 mg base/kg PO QD×65): well tolerated
mean body weight losses (LU2514 SCLC PDX): < 10%
Median Tumor Volumes Day 1 (LXFS 573 SCLC PDX [2]; 5 mg base/kg PO QD × 28): 108.4 mm^3
TGI end of study (Day 28) (LXFS 573 SCLC PDX [2]; 5 mg base/kg oral): 78%
Median Tumor Volumes Day 1 (LXFS 573 SCLC PDX [2]; 7.5 mg base/kg PO QD × 28): 113.2 mm^3
Median Tumor Volumes Day 1 (LXFS 573 SCLC PDX [2]; 10 mg base/kg PO QD × 28): 113.8 mm^3
Median Tumor Volumes Day 0 (LU2527 lung NEC PDX; 1.5 mg base/kg PO QD × 46): 148.2 mm^3
Median Tumor Volumes Day 0 (LU2527 lung NEC PDX; 5 mg base/kg PO QD × 46): 151.8 mm^3
Median Tumor Volumes Day 0 (GA0087 gastric NEC PDX; Group 2, 1.5 mg base/kg PO QD × 53): 128.9 mm^3
Median Tumor Volumes Day 0 (GA0087 gastric NEC PDX; Group 3, dose printed 1.5 mg base/kg (text: 5 mg/kg) PO QD × 53): 127.6 mm^3
Median Tumor Volumes Day −3 (MKL-1 hMCC xenograft): 65 mm^3
Median Tumor Volumes Day −3 (MS-1 hMCC xenograft): 49 mm^3
downregulated genes changed in both hMCC lines at both concentrations (of 4303) (MKL-1 cells; MKL-1 and MS-1, 10 and 100 nM, 3 days): 17 genes
ST18 and FREM2 gene expression change (upregulated, dose-dependent) (MKL-1 cells; both hMCC lines, 10 and 100 nM): at least 2 fold
maximum suppression of HR vs vehicle ([3]; 20 mg base/kg IV, 9 minutes into 10-minute infusion): 19%
effect on MAP or its components ([3]; IV 5-20 mg base/kg vs time-matched vehicle): No notable effect
QTcB interval increase at end of monitoring period ([3]; after escalating IV doses): 10%
clearance ([4]; CD-1, plasma): 39 mL/min/kg
Vss [4]: 7.31 L/kg
systemic clearance [5]: greater than liver blood flow
metabolic stability in hepatocytes [6]: greater in rat and dog followed by human and monkeys while being least stable in mouse hepatocytes
dose excreted intact in urine ([7]; 24 hours): 8.5 % of dose
dose excreted intact in 24 hours (urine + bile) ([7]; bile duct cannulated rats): 26.3 % of the dose
animals euthanized moribund ([8]; 0.375 mg base/kg QW): 1 male
animals euthanized moribund ([8]; 0.75 mg base/kg QW): 2 males and 1 female
animals euthanized moribund ([8]; 1.5 mg base/kg QW): 3 males and 4 females
recovery of findings after 4-week treatment-free period ([8]; dog, in vivo): complete recovery
animals euthanized moribund ([8]; weekly oral administration, study Days 13 to 23): 11 animals
mutagenicity [9]: negative
increase in platelets on Day 8 vs end of first dosing period ([10]; 10 mg/kg/day 5 days on/2 days off): > 2 fold
greatest reduction in neutrophil counts vs controls and pre-study values ([10]; 5 days on/2 days off schedule): approximately 90%
circulating platelets at end of study ([10]; all dose levels): reduced
tumor volume of survivor at study end (LXFS 573 SCLC PDX [11]; Compound A 1 mg/kg in combination with etoposide 24 mg/kg): 1430 mm3
survivors on Day 133 (LXFS 573 SCLC PDX [11]; Compound A 1 mg/kg in combination with etoposide 24 mg/kg, n=8): 1 animals
MTV of survivors on Day 133 (LXFS 573 SCLC PDX [11]; Compound A 2.5 mg/kg in combination with etoposide 24 mg/kg): 1121 mm3
survivors on Day 133 (LXFS 573 SCLC PDX [11]; Compound A 2.5 mg/kg in combination with etoposide 24 mg/kg, n=8): 3 animals
MTV of survivors on Day 133 (LXFS 573 SCLC PDX [11]; Compound A 5 mg/kg in combination with etoposide 24 mg/kg): 121 mm3
survivors on Day 133 (LXFS 573 SCLC PDX [11]; Compound A 5 mg/kg in combination with etoposide 24 mg/kg, n=8): 8 animals
Median TTE (LXFS 573 SCLC PDX [11]; Compound A at 5 mg/kg/day PO days 1-133): 133 days
SS, number of study survivors (LXFS 573 SCLC PDX [11]; Compound A at 5 mg/kg/day): 7
study survivors on Day 133 (LXFS 573 SCLC PDX [11]; Compound A monotherapy 5 mg/kg, n=8): seven
Hill coefficient (hERG potassium channel): 1.2
Compound A-related effects ([12]; 0.25 mg/kg/dose QOD): generally no Compound A-related effects
body weight loss of moribund female ([12]; 0.5 mg/kg/day 5 days on/2 days off, Day 12): 10.8%
mortality ([12]; 0.5 mg/kg/day 5 days on/2 days off, one female, Day 12): sacrificed moribund

COc1cc([C@@H]2c3cc4c(cc3[C@@H](O[C@@H]3O[C@@H]5CO[C@@H](C)O[C@H]5[C@H](O)[C@H]3O)[C@H]3COC(=O)[C@H]23)OCO4)cc(OC)c1O [Etoposide, etoposide, reference compound]
SS, number of study survivors (LXFS 573 SCLC PDX [11]; Etoposide at 24 mg/kg/day + Vehicle): 0 (na)
Median TTE (LXFS 573 SCLC PDX [11]; [14]): 63 days
T-C (LXFS 573 SCLC PDX [11]; [14]): 21 days
% TGD (LXFS 573 SCLC PDX [11]; etoposide monotherapy 24 mg/kg): 50%
TGD (LXFS 573 SCLC PDX [11]; etoposide monotherapy 24 mg/kg): 21 days
Median TTE (LXFS 573 SCLC PDX [11]; etoposide monotherapy 24 mg/kg SC daily Days 1-3): 63 days
% TGD (NCI-H1417 SCLC xenograft [13]): 97%
Median TTE (NCI-H1417 SCLC xenograft [13]): 50 days
T − C (NCI-H1417 SCLC xenograft [13]): 24 days
